Ten compounds from patent US20230218688A1 (Zhejiang Chinese Medical University, priority 2022, published 2023) can be followed below.

The first assay deals with Helicobacter pylori ATCC43504. The assay can be described thus: Growth inhibition experiment on Helicobacter pylori. The assay is classed as cell-based. The settings on record: Fermentation supernatant.
Take `Cc1ncc([N+](=O)[O-])n1CCO` [Positive control, metronidazole]: the “Inhibition rates to Helicobacter pylori (%)” value turned out to be 100%.

Staying with this assay, now noted: Suspension.
Regarding `Cc1ncc([N+](=O)[O-])n1CCO` [Positive control, metronidazole], the “Inhibition rates to Helicobacter pylori (%)” value turned out to be 100%.

A further assay has as its system Lactobacillus helveticus ZJUIDS12. The assay can be described thus: Antibiotic susceptibility of Lactobacillus helveticus ZJUIDS12 (susceptibility paper, inhibition zone). The assay is classed as cell-based. Further details: key to Susceptive type: S: sensitive; I: intermediate; R: insensitive. The settings on record: according to CLSI 2017.
Consider `CCn1cc(C(=O)O)c(=O)c2cc(F)c(N3CCNCC3)cc21` [Norfloxacin (NOR), Norfloxacin], for which the Susceptive type result is recorded as “S” and the “susceptibility of Lactobacillus helveticus ZJUIDS12 to the antibiotic (in words)” value (“susceptibility” for short) is given as “sensitive”.
For `CC1(C)S[C@@H]2[C@H](NC(=O)Cc3ccccc3)C(=O)N2[C@H]1C(=O)O` [Penicillin G(P), Penicillin G], the Susceptive type entry is listed as “S” and the “susceptibility” value is recorded as “sensitive”.
Take `CC[C@H]1OC(=O)[C@H](C)[C@@H](O[C@H]2C[C@@](C)(OC)[C@@H](O)[C@H](C)O2)[C@H](C)[C@@H](O[C@@H]2O[C@H](C)C[C@H](N(C)C)[C@H]2O)[C@](C)(O)C[C@@H](C)C(=O)[C@H](C)[C@@H](O)[C@]1(C)O` [Erythromycin (E), Erythromycin]: the Susceptive type result was “S” and the “susceptibility” value is “sensitive”.
Consider Gentamicin [Gentamicin (GM)], for which the Susceptive type entry is reported as “I” and the “susceptibility” value is “intermediate”.
For the compound `NCC[C@H](O)C(=O)N[C@@H]1C[C@H](N)[C@@H](O[C@H]2O[C@H](CN)[C@@H](O)[C@H](O)[C@H]2O)[C@H](O)[C@H]1O[C@H]1O[C@H](CO)[C@@H](O)[C@H](N)[C@H]1O` [Amikacin (AK), Amikacin], the Susceptive type entry is “S” and the “susceptibility” value was “sensitive”.
As to `O=C(N[C@H](CO)[C@H](O)c1ccc([N+](=O)[O-])cc1)C(Cl)Cl` [Chloramphenicol (C), Chloramphenicol], the Susceptive type result is on record as “S” and the “susceptibility” value is “sensitive”.
In the same order, the values of `CC1(C)S[C@@H]2[C@H](NC(=O)[C@H](N)c3ccccc3)C(=O)N2[C@H]1C(=O)O` [Ampicillin (AM), Ampicillin] are “S” and “sensitive”.
Take `Cc1cc(NS(=O)(=O)c2ccc(N)cc2)no1` [Sulfamethoxazole (SXT), Sulfamethoxazole]: the Susceptive type result is “R” and the “susceptibility” value is “insensitive”.
With `Cc1nnc(SCC2=C(C(=O)O)N3C(=O)[C@@H](NC(=O)Cn4cnnn4)[C@H]3SC2)s1` [Cefazolin(CZ), Cefazolin], the Susceptive type entry is “S” and the “susceptibility” value is given as “sensitive”.
